{
  "source": "patent US20180073018A1",
  "about": "“COMPOSITIONS AND METHODS FOR SPECIFIC REACTIVATION OF HIV LATENT RESERVOIR” (priority 2015, published 2018)",
  "system": "TZM-bI cells",
  "test": "CellTiter-Glo luminescent cell viability assay in TZM-bI cells",
  "assay_type": "cell-based",
  "conditions": "TZM-bI, 5,000 nM",
  "protocol": "FIG. 10A, FIG. 10B: TZM-bI cells were infected with indicated lentiviruses for 1 d and triple antibiotic selection with puromycin/hygromycin/zeoin (P/H/Z) was maintained for 4 d before passage, OneGlo luciferase reporter assay (FIG. 10A) and CellTiter-Glo® luminescent cell viability assay (FIG. 10B). FIG. 10C, FIG. 10D: CHME5 cells were infected with indicated lentiviruses and cultured for 5 d in the absence or presence of P/H/Z triple selection. Flow cytometry analysis was performed for reactivation efficiency (FIG. 10C) and total survival cell number (FIG. 10D). FIG. 10E: Caspase-Glo® 3/7 Assay was performed at 2 dpi to evaluate apoptotic cell death. […] FIG. 10F, FIG. 10G: The 2D10 cells were infected for 1 and 4 dpi, and the reactivation efficiency (FIG. 10F) and relative total survival cell number (FIG. 10G) were determined by flow cytometry. *p<0.05 and **p<0.01 indicate statistical significance by ANOVA and FLSD test.\nFIG. 12A, FIG. 12B, FIG. 12C: The dCas9-VPH stable TZM-bI cells were treated with SAHA or infected with indicated msgRNAs lentivirus for 2-4 d before luminescence reporter assay (FIG. 12A) and CELLTITER-GLO® luminescent cell viability assay (FIG. 12B). […]\nThe cell growth/proliferation was determined by the trypan blue exclusion hemocytometry, and CELLTITER-GLO luminescence viability assay (Promega). […]",
  "data": [
    {"smiles": "O=C(CCCCCCC(=O)Nc1ccccc1)NO", "note": "[SAHA, suberoylanilide hydroxamic acid]", "values": [
      {"measurement": "cell viability", "value": "killed all the cells"}
    ]}
  ]
}
